As usually defined, the CC50 is the concentration giving 50% cytotoxicity.

Data set [1] deals with mouse spleen lymphocytes. The data set can be described thus: Non-specific cytotoxicity assay (MTT), mouse spleen lymphocytes. It counts as cell-based. The conditions noted are these: mouse whole spleen lymphocytes, 48 hours, listed as Hydroxychloroquine Sulfate (Zhongxi Sunve). How it is done:
BALB/c mice were sacrificed by cervical dislocation, and spleens were aseptically excised to prepare whole spleen lymphocytes. The cells were adjusted to the required concentration. The compound concentrations started at 250 μM and was diluted with a 4-fold gradient to obtain 10 concentrations: 250, 62.5, 15.625, 3.906, 0.977, 0.244, 0.061, 0.015, 0.004 and 0.001 μM.
A suspension of mouse spleen lymphocytes was inoculated into a 96-well plate at 8×10^5/well, and the above 10 concentration gradients of the compound were added. A corresponding cell control (i.e. spleen lymphocyte culture system without compound) and a RPMI 1640 culture medium background control (blank culture medium control) were set up. The cells were cultured in a 37° C., 5% CO2 incubator for 48 hours. Four hours before the end of the culture, 20 μl of 5 mg/ml MTT solution was added, and the reaction continued until the end of the culture (i.e. the aforementioned 48 hours). The supernatant was aspirated and discarded, 200 μl DMSO was added to each well to dissolve the crystals. […]. The absorbance value was measured at […] with a microplate reader (Spectra Max 190, Molecular Devices).

The subject of data set [2] is bovine type II collagen-induced arthritis in mice. The data set can be described thus: Bovine type II collagen-induced arthritis in mice: arthritis scoring and hindfoot thickness. The format is in vivo, mouse. How it is done:
(§1) Normal group, model group, positive medicament (1 mg/kg dexamethasone) group, naphthoquine phosphate (25, 50, 100 mg/kg) groups, hydroxychloroquine sulfate (100 mg/kg) group.
(§2) 10 mg of Type II Collagen (CII) was swollen in 2.5 ml of 0.1 mol/L glacial acetic acid to prepare a 4 mg/ml CII solution. This solution was fully emulsified with an equal volume of CFA, and injected subcutaneously (50 μl) at the base of the tail of mice. After 21 days, 4 mg/ml CII solution was fully emulsified with an equal volume of IFA. This mixture was injected subcutaneously (50 μL) at the base of the tail of mice to boost the immune response.
The severity of arthritis was scored by observing joint lesions of limbs of mice. Detectable arthritis accompanied by erythema in one or more fingers was scored as 1 point, moderate redness and swelling from the ankle joint to the middle of the foot was scored as 2 points, severe redness and swelling from the ankle joint to the fingers was scored as 3 points, and severe swelling with ankylosis was scored as 4 points. During scoring, bilateral hindfoot thickness was measured.

In data set [3] the test system is spleen and lymph node lymphocytes in arthritic mice. The data set can be described thus: Lymphocyte proliferation of spleen and lymph nodes of arthritic mice (3H-TdR incorporation). The format is in vivo, mouse. The conditions noted are these: intragastric, cells stimulated ex vivo, FIG. 3. As to the method: as §1, §2
Lymphocyte proliferation in each group was assessed using the ^3H-TdR incorporation method. Lymph nodes […] of mice in each group were isolated to prepare lymphocyte suspensions. The cells were inoculated into each well of a 96-well plate. ConA (final concentration: 5 μg/ml) and LPS (final concentration: 10 μg/ml) were added respectively, and cultured in a 37° C., 5% CO2 incubator for 48 hours. Eight hours before the end of the culture, 25 μl ^3H-TdR and anti-CD3 (final concentration: 5 μg/ml, pre-incubated overnight) were added to each well. The cells were cultured in a 37° C., 5% CO2 incubator for […]. […] 5 ml scintillation fluid was added, and the values of radioactive counts per minute were read on a Beta counter (2450 Microplate Counter, PerkinElmer).

Data set [4] concerns collagen-specific antibodies. Kind of data set: Anti-CII antibody levels in serum of arthritic mice (ELISA). It counts as in vivo, mouse. The following applies: intragastric, FIG. 4. As to the method: as §1, §2
50 μl CII solution (final concentration: 50 μg/ml) was added to each well of a 96-well ELISA plate for coating overnight. The plate was washed 4 times with 200 μl washing solution (1L PBS+500 μl Tween 20) per well. 100 μl 1% BSA was added to each well to block for 1 hour. The plate was then washed 4 times with 200 μl washing solution per well. 50 μl diluted serum samples from each group of mice were added to each well and incubated for 2 hours. The plate was washed 4 times with 200 μl washing solution per well. Horseradish Peroxidase (HRP)-conjugated IgG secondary antibody was added and incubated for 1 hour. […] Absorbance values at 450 nm/570 nm were read by a microplate reader (Spectra Max 190, Molecular Devices).
On the technique in general: In an ELISA, binding on a coated surface is turned into a signal by an enzyme label.

In data set [5] the test system is bovine type II collagen-induced arthritis in mice. The data set can be described thus: Bone morphological analysis by Micro-CT in arthritic mice. It counts as in vivo, mouse. The following applies: intragastric, FIG. 5. As to the method: as §1, §2
Three-dimensional reconstruction was performed by the micro-CT technology, and bone morphology analysis was performed by professional analysis software.

Data set [6] relates to anti-nuclear antibodies. The data set can be described thus: Anti-nuclear antibodies in serum of MRL/lpr mice (ANA kit). It counts as in vivo, mouse. The conditions noted are these: intragastric 25, 50 mg/kg, FIG. 8. How it is done: Normal group, model group, positive medicament (1 mg/kg prednisone) group, naphthoquine phosphate (25, 50 mg/kg) group, hydroxychloroquine sulfate (100 mg/kg) group.
At the end of the experiment, eyeballs were removed to collect blood. ELISA method was used to detect the levels of anti-dsDNA antibodies in serum of experimental mice, and the anti-nuclear antibody kit was used to detect the levels of anti-nuclear antibodies. […] (Note: * P value<0.05, ** P value<0.01, *** P value<0.001, compared with model group.)

Where a name gives a salt, the structure may show the parent alone.

On to `CCN(CCO)CCCC(C)Nc1ccnc2cc(Cl)ccc12` (centres unmarked) [Hydroxychloroquine Sulfate, hydroxychloroquine sulfate], for which it took 25.2 µM to reach half-maximal cytotoxicity in data set [1] (CC50).

As to `CC(C)(C)NCc1cc(Nc2ccnc3cc(Cl)ccc23)c2c(c1O)CCCC2.O=P(O)(O)O.O=P(O)(O)O` [Naphthoquine Phosphate, Naphthoquine phosphate], in data set [2] (intragastric, 25, 50, 100 mg/kg, FIG. 1, vs model group), the “arthritis scores of model mice” value is on record as “significantly reduced”. Besides, the “foot swelling in arthritic mice” value in data set [2] (intragastric, FIG. 2) is given as “improved”. For the same molecule, in data set [2] (same dose (100 mg/kg), FIG. 1), the “therapeutic effect on arthritis scores compared with hydroxychloroquine sulfate” value is reported as “superior to that of hydroxychloroquine sulfate at the same dose”. Besides, in data set [3], the “proliferation of spleen and lymph node lymphocytes in arthritic mice” value was “significantly inhibit”. Besides, the “levels of collagen-specific antibodies in serum of arthritic mice” value in data set [4] is “reduce”. The “bone damage in model mice (Micro-CT)” value in data set [5] is on record as “inhibited”. In addition, in data set [6], the “levels of anti-nuclear antibodies in serum” value was “significantly reduced”.
